Assays:
Test in all cases: Tautomerase Activity Assay
[1] = biological target: T1, Macrophage migration inhibitory factor-like protein (Plasmodium yoelii yoelii, UniProt Q1HEA2)
T1 sequence (Q1HEA2 whole entry): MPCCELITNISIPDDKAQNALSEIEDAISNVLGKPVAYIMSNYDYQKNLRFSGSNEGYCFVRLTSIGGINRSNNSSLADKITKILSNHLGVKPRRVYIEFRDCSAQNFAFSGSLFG
Text: (§1) The tautomerase activity of MIFs was monitored by following the tautomerization of L-dopachrome methyl ester by the recombinant MIFs in the presence or absence of increasing concentrations of all six limonoids extracted from neem.

[2] = biological target: T2, Macrophage migration inhibitory factor (Homo sapiens, UniProt P14174)
T2 sequence (P14174 whole entry): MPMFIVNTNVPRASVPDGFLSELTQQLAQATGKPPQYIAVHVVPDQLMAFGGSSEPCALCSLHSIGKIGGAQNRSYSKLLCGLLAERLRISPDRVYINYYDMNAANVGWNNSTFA
Text: as §1

[3] = biological target: T3, Macrophage migration inhibitory factor (Plasmodium falciparum (isolate 3D7), UniProt Q8I5C5)
T3 sequence (Q8I5C5 whole entry): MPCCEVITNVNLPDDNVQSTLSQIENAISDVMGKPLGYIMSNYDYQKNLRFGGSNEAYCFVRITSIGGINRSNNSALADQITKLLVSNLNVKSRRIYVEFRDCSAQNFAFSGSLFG
Text: as §1

CC(=O)O[C@@H]1C[C@H]2C(C)(C)C(=O)C=C[C@]2(C)[C@H]2CC[C@]3(C)C(=CC(=O)[C@H]3c3ccoc3)[C@@]21C [Azadiradione]
IC50 [1]: 43 µM | IC50 [2]: 35.2 µM | IC50 [3]: 45.6 µM

CC(=O)O[C@@H]1C[C@H]2C(C)(C)C(=O)C=C[C@]2(C)[C@H]2CC[C@@]3(C)[C@H](c4ccoc4)C(=O)[C@H]4O[C@]43[C@@]21C [Epoxyazadiradione]
IC50 [1]: 9.8 µM | IC50 [3]: 9.5 µM

COC(=O)C[C@H]1[C@]2(C)C3=C(C)[C@H](c4ccoc4)C[C@H]3O[C@@H]2[C@H](OC(C)=O)[C@@H]2[C@]1(C)C(=O)C=C[C@@]2(C)C(=O)OC [Nimbin]
IC50 [1]: 22.4 µM | IC50 [2]: 17.5 µM | IC50 [3]: 22.5 µM

C/C=C(\C)C(=O)O[C@H]1C[C@@H](OC(C)=O)[C@@]2(C)CO[C@H]3[C@H]4O[C@@H]5C[C@@H](c6ccoc6)C(C)=C5[C@@]4(C)[C@H](CC(=O)OC)[C@]1(C)[C@@H]32 [Salannin]
IC50 [1]: 95.2 µM | IC50 [2]: 85.3 µM | IC50 [3]: 89.5 µM
